# Experiments:
# [1] = test system: subclones of RKO colon adenocarcinoma cells (RKOp27 or RKOp21) arrested by Ponasterone A; experiment: Alamar Blue cell viability assay, cell cycle specific mode of action: cells arrested by ectopic p27Kip1 induced by Ponasterone A versus proliferating cells; assay type: cell-based; settings: Homo sapiens, RKO p27 induced (arrested) cells, 10 μM Ponasterone A, 72 hours, value = class bound given in Table A, read-out: −logIC50 RKO p27 induced (arrested) (converted)
# Method in brief: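 Viability of proliferating versus Ponasterone A (10 μM)-arrested RKOp27/RKOp21 cells after 72 h compound exposure at 37° C, in quadruplicate. Read-out is Alamar Blue fluorescence (544/590 nm) normalised to untreated cells = 100%; values as −log IC50.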
# [2] = test system: RKO (RKOp27) human colon adenocarcinoma cells; experiment: Alamar Blue cell viability assay, anti-proliferative/cytotoxic activity on proliferating RKO subclones; assay type: cell-based; settings: RKOp27, 72 h, RKO p27 uninduced (proliferating) cells, value = class bound given in Table A, read-out: −logIC50 RKO p27 uninduced (proliferating) (converted)
# Method in brief: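 Alamar Blue fluorescence (ex 544, em 590 nm) after 72 h compound exposure at 37 °C, 5% CO2, normalised to untreated controls set at 100%. Cells were seeded at 5000 per well and dosed 24 h later with serial semi-logarithmic dilutions in 10% FCS DMEM, four replicates each. −log IC50 [mol/l] was derived from concentration-effect curves.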
SMILES,IC50 [1],IC50 [2]
"CCOc1ccccc1CCC(=O)Nc1sc2c(c1C#N)CCC(COC(=O)NCc1ccnn1C)C2 (stereo not shown) [Example 180, (2-Methyl-2H-pyrazol-3-ylmethyl)-carbamic acid 3-cyano-2-[3-(2-ethoxy-phenyl)-propanoylamino]-4,5,6,7-tetrahydro-benzo[b]thiophen-6-ylmethyl ester]",≥ 100000 nM,≤ 501 nM
"N#Cc1c(NC(=O)/C=C/c2cccnc2)sc2c1CCC(OC(=O)NC1CC1)C2 (stereo not shown) [Example 21, Cyclopropyl-carbamic acid 3-cyano-2-((E)-3-pyridin-3-yl-allanoylamino)-4,5,6,7-tetrahydro-benzo[b]thiophen-6-yl ester]",≥ 100000 nM,≤ 501 nM
"CC(CC(=O)Nc1sc2c(c1C#N)CCC(COC(=O)NCc1ccccc1)C2)c1ccccn1 (stereo not shown) [Example 343, Benzyl-carbamic acid 3-cyano-2-(3-pyridin-2-yl-butanoyl-amino)-4,5,6,7-tetrahydro-benzo[b] thiophen-6-ylmethyl ester]",≥ 50100 nM,≤ 501 nM
"COC[C@@H]1CCCN1C(=O)OCC1CCc2c(sc(NC(=O)/C=C/c3cccnc3)c2C#N)C1 (stereo partly drawn) [Example 90, 2-(S)-(Methoxymethyl) pyrrolidine-1-carboxylic acid 3-cyano-2-((E)-3-pyridin-3-yl-allanoylamino)-4,5,6,7-tetrahydro-benzo[b]thiophen-6-ylmethyl ester]",≥ 100000 nM,≤ 501 nM
"Cn1cc(CNC(=O)OCC2CCc3c(sc(NC(=O)/C=C/c4cccnc4)c3C#N)C2)cn1 (stereo not shown) [Example 50, (1-Methyl-1H-pyrazol-4-ylmethyl)-carbamic acid 3-cyano-2-((E)-3-pyridin-3-yl-allanoylamino)-4,5,6,7-tetrahydro-benzo[b]thiophen-6-ylmethyl ester]",≥ 100000 nM,≤ 501 nM
"CCOC(=O)OC1CCc2c(sc(NC(=O)CCc3cccnc3)c2C#N)C1 (stereo not shown) [Example 158, Carbonic acid 3-cyano-2-(3-pyridin-3-yl-propanoylamino)-4,5,6,7-tetrahydro-benzo[b]thiophen-6-yl ester ethyl ester]",≥ 100000 nM,501 to 2000 nM
"CC(CC(=O)Nc1sc2c(c1C#N)CCC(OC(=O)NCc1ccno1)C2)c1ccccc1 (stereo not shown) [Example 372, (Isoxazol-5-ylmethyl)-carbamic acid 3-cyano-2-(3-phenyl-butanoylamino)-4,5,6,7-tetrahydro-benzo[b]thiophen-6-yl ester]",≥ 50100 nM,≤ 501 nM
"CCN(C)C(=O)OC1CCc2c(sc(NC(=O)/C=C/c3cccnc3)c2C#N)C1 (stereo not shown) [Example 91, Ethyl-methyl-carbamic acid 3-cyano-2-((E)-3-pyridin-3-yl-allanoylamino)-4,5,6,7-tetrahydro-benzo[b]thiophen-6-yl ester]",≥ 100000 nM,≤ 501 nM
"COc1cccc(CCC(=O)Nc2sc3c(c2C#N)CCC(OC(=O)NCCn2ccnc2)C3)c1 (stereo not shown) [Example 263, (2-Imidazol-1-yl-ethyl)-carbamic acid 3-cyano-2-[3-(3-methoxy-phenyl)-propanoylamino]-4,5,6,7-tetrahydro-benzo[b]thiophen-6-yl ester]",≥ 50100 nM,≤ 501 nM
"CCNC(=O)OCC1CCc2c(sc(NC(=O)/C=C/c3ccccc3OCC)c2C#N)C1 (stereo not shown) [Example 10, Ethyl-carbamic acid 3-cyano-2-[(E)-3-(2-ethoxy-phenyl)-allanoylamino]-4,5,6,7-tetrahydro-benzo[b]thiophen-6-ylmethyl ester]",≥ 100000 nM,≤ 501 nM
"CN(C)C(=O)OC[C@H]1CCc2c(sc(NC(=O)/C=C/c3cccnc3)c2C#N)C1 [Example 74a, Dimethyl-carbamic acid (S)-3-cyano-2-((E)-3-pyridin-3-yl-allanoylamino)-4,5,6,7-tetrahydro-benzo[b]thiophen-6-ylmethyl ester]",≥ 100000 nM,≤ 501 nM
"COc1cccc(CCC(=O)Nc2sc3c(c2C#N)CCC(OC(=O)NCCO)C3)c1 (stereo not shown) [Example 250, (2-Hydroxy-ethyl)-carbamic acid 3-cyano-2-[3-(3-methoxy-phenyl)-propanoylamino]-4,5,6,7-tetrahydro-benzo[b]thiophen-6-yl ester]",≥ 100000 nM,≤ 501 nM
"CC(CC(=O)Nc1sc2c(c1C#N)CCC(COC(=O)NCc1cnn(C)c1)C2)c1cccnc1 (stereo not shown) [Example 281, (1-Methyl-1H-pyrazol-4-ylmethyl)-carbamic acid 3-cyano-2-(3-pyridin-3-yl-butanoyl-amino)-4,5,6,7-tetrahydro-benzo[b] thiophen-6-ylmethyl ester]",≥ 100000 nM,501 to 2000 nM
"N#Cc1c(NC(=O)/C=C/c2cccnc2)sc2c1CCC(OC(=O)N1CCCCC1)C2 (stereo not shown) [Example 111, Piperidine-1-carboxylic acid 3-cyano-2-((E)-3-pyridin-3-yl-allanoylamino)-4,5,6,7-tetrahydro-benzo[b]thiophen-6-yl ester]",≥ 100000 nM,≤ 501 nM
"N#Cc1c(NC(=O)/C=C/c2cccnc2)sc2c1CC[C@@H](COC(=O)N1CC(O)C1)C2 [Example 73b, 3-Hydroxy-azetidine-l - carboxylic acid (R)-3-cyano-2-((E)-3-pyridin-3-yl-allanoylamino)-4,5,6,7-tetrahydro-benzo[b]thiophen-6-ylmethyl ester]",≥ 100000 nM,501 to 2000 nM
"N#Cc1c(NC(=O)/C=C/c2cccnc2)sc2c1CCC(OC(=O)NCc1ccccc1)C2 (stereo not shown) [Example 2, Benzyl-carbamic acid 3-cyano-2-((E)-3-pyridin-3-yl-allanoylamino)-4,5,6,7-tetrahydro-benzo[b]thiophen-6-yl ester]",≥ 10000 nM,501 to 2000 nM
"CCNC(=O)OC[C@@H]1CCc2c(sc(NC(=O)/C=C/c3cccnc3)c2C#N)C1 [Example 9b, (R)-Ethyl-carbamic acid 3-cyano-2-((E)-3-pyridin-3-yl-allanoylamino)-4,5,6,7-tetrahydro-benzo[b]thiophen-6-ylmethyl ester]",≥ 100000 nM,≤ 501 nM
"N#Cc1c(NC(=O)/C=C/c2cccnc2)sc2c1CCC(COC(=O)NCCO)C2 (stereo not shown) [Example 29, (2-Hydroxy-ethyl)-carbamic acid 3-cyano-2-((E)-3-pyridin-3-yl-allanoylamino)-4,5,6,7-tetrahydro-benzo[b]thiophen-6-ylmethyl ester]",≥ 100000 nM,501 to 2000 nM
"COc1cccc(CCC(=O)Nc2sc3c(c2C#N)CCC(COC(=O)NCc2ccccn2)C3)c1 (stereo not shown) [Example 235, Pyridin-2-ylmethyl-carbamic acid 3-cyano-2-[3-(3-methoxy-phenyl)-propanoylamino]-4,5,6,7-tetrahydro-benzo[b]thiophen-6-ylmethyl ester]",≥ 100000 nM,501 to 2000 nM
"Cc1cc(CNC(=O)OCC2CCc3c(sc(NC(=O)/C=C/c4cnccc4C)c3C#N)C2)no1 (stereo not shown) [Example 134, (5-Methyl-isoxazol-3-ylmethyl)-carbamic acid 3-cyano-2-[(E)-3-(4-methyl-pyridin-3-yl)-allanoylamino]-4,5,6,7-tetrahydro-benzo[b]thiophen-6-ylmethyl ester]",≥ 100000 nM,≤ 501 nM
"CCOc1ccccc1CCC(=O)Nc1sc2c(c1C#N)CCC(COC(=O)NCc1cn(C)cn1)C2 (stereo not shown) [Example 178, (1-Methyl-1H-imidazol-4-ylmethyl)-carbamic acid 3-cyano-2-[3-(2-ethoxy-phenyl)-propanoylamino]-4,5,6,7-tetrahydro-benzo[b]thiophen-6-ylmethyl ester]",≥ 50100 nM,≤ 501 nM
"CC(CC(=O)Nc1sc2c(c1C#N)CCC(OC(=O)OCc1cncs1)C2)c1ccccc1 (stereo not shown) [Example 375, Carbonic acid 3-cyano-2-(3-phenyl-butanoyl-amino)-4,5,6,7-tetrahydro-benzo[b] thiophen-6-yl ester thiazol-5-ylmethyl ester]",≥ 10000 nM,≤ 501 nM
"COc1cccc(CCC(=O)Nc2sc3c(c2C#N)CCC(OC(=O)NCc2cc(C)nn2C)C3)c1 (stereo not shown) [Example 226, (2,5-Dimethyl-2H-pyrazol-3-ylmethyl)-carbamic acid 3-cyano-2-[3-(3-methoxy-phenyl)-propanoylamino]-4,5,6,7-tetrahydro-benzo[b]thiophen-6-yl ester]",≥ 100000 nM,≤ 501 nM
"CC(CC(=O)Nc1sc2c(c1C#N)CCC(COC(=O)NCc1nccn1C)C2)c1ccccc1 (stereo not shown) [Example 311, (1-Methyl-1H-imidazol-2-ylmethyl)-carbamic acid 3-cyano-2-(3-phenyl-butanoylamino)-4,5,6,7-tetrahydro-benzo[b] thiophen-6-ylmethyl ester]",≥ 10000 nM,≤ 501 nM
"CC(CC(=O)Nc1sc2c(c1C#N)CCC(OC(=O)NCc1ccnn1C)C2)c1ccccc1 (stereo not shown) [Example 293, (2-Methyl-2H-pyrazol-3-ylmethyl)-carbamic acid 3-cyano-2-(3-phenyl-butanoylamino)-4,5,6,7-tetrahydro-benzo[b] thiophen-6-yl ester]",≥ 50100 nM,≤ 501 nM
"COc1cccc(CCC(=O)Nc2sc3c(c2C#N)CCC(OC(=O)NCc2cnoc2C)C3)c1 (stereo not shown) [Example 227, (5-Methyl-isoxazol-4-ylmethyl)-carbamic acid 3-cyano-2-[3-(3-methoxy-phenyl)-propanoylamino]-4,5,6,7-tetrahydro-benzo[b]thiophen-6-yl ester]",≥ 100000 nM,≤ 501 nM
